Holding throughout (type): biochemical
In assay [1] the target is T1, Cathepsin B (exopeptidase a.) (Homo sapiens, UniProt P07858).
T1 construct: made in house; host or cells: E. coli
In words: Ki against cathepsin B exopeptidase activity (Abz-GIVRAK(Dnp)-OH). The note with it: SigmaPlot at 3 different substrate concentrations; pH 5.0. The procedure:
(§1) Recombinant or native human cathepsins were used: recombinant cathepsin X and cathepsin S were expressed in Pichia pastoris, recombinant cathepsins B and L in E. coli, [43], native cathepsin H was isolated from human liver. Assay buffers for determining activities of cathepsins X and L consisted of 100 mM sodium acetate buffer, pH 5.5, for cathepsins H, S and B (endopeptidase activity) of 100 mM phosphate buffer pH 6.8, 6.5 and 6.0, respectively and for cathepsin B (exopeptidase activity) of 60 mM acetate buffer pH 5.0. Each assay buffer contained 0.01% Triton X-100 to prevent false positive inhibition due to aggregation of compounds[45], 5 mM cysteine, 1.5 mM EDTA and 0.1% PEG 8000. Enzymes were activated at 37 °C for 5 min before the assays.
(§2) Ki was determined by measuring the initial rate of hydrolysis at three different substrate concentrations (Supplementary Table S2) in the presence of seven different compound concentrations (0, 20, 40, 60, 80, 100 and 200 μM). 90 μL of the activated cathepsin was added to a black 96-well plate with 5 μL of the substrate and 5 μL of the compound. Formation of the fluorescent degradation product was monitored continuously at 460 nm ± 10 nm with excitation at 380 nm ± 20 nm (for AMC substrates) and, as noted above for Abz substrates, at 37 °C. All measurements were performed twice and in duplicate. The resulting data were analyzed by non-linear regression using the software SigmaPlot®, Enzyme Kinetics Module™ 1.3 and were fitted to the equation v = v max [S]/([S] (1 + [I]/αK i ) + K m (1 + [I]/K i )) (first group of compounds). For Ki determination against cathepsin X for the compounds from the second group, progress curves in the absence and presence of each putative inhibitor were fitted to the reaction mechanism presented in Fig. 3b. In this case the resulting data as well as reactivation curves were fitted to the equation system presented in Fig. 3c using ENZO application. For calculation of kinetic parameters from reaction progress curves the fluorescence coefficient for conversion of arbitrary fluorescence units to concentration was first determined. The fluorescence coefficient was calculated as the slope from the plot of initial substrate concentration vs. height of the plateau of the progress curve after complete hydrolysis of increasing concentrations of substrate, using linear regression.
(§3) Supplementary Table S2. Substrates used for the various cathepsins and their concentrations […]
(§4) Enzyme Substrate Concentration (µM) Reference/Company cathepsin X Abz-FEK(Dnp)-OH 3.25, 6.5, 13 Puzer et al.3 cathepsin B - endopept. Z-RR-AMC 60, 180, 360 Bachem cathepsin B - exopept. Abz-GIVRAK(Dnp)-OH 1, 3, 6 Bachem cathepsin S Z-VVR-AMC 0.5, 1, 1.5 Biomol cathepsin L Z-FR-AMC 0.5, 1, 4 Bachem cathepsin H Z-R-AMC 20, 80, 160 Biomol […]

In assay [2] the target is T2, Cathepsin H (Homo sapiens, UniProt P09668).
T2 construct: native cathepsin H was isolated from human liver; from tissue; host or cells: human liver
T2 sequence (P09668 116-335 limits assumed, other chains not shown): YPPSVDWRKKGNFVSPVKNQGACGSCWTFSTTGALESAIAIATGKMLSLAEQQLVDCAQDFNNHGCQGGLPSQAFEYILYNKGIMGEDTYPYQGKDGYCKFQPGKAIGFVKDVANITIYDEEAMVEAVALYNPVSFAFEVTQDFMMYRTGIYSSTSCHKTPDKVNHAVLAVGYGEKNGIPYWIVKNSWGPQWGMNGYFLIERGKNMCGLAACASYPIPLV
The experiment in a line: Ki against cathepsin H (Z-R-AMC). Conditions: SigmaPlot at 3 different substrate concentrations; pH 6.8. The procedure: as §1, §2, §3, §4

The target in assay [3] is T3, Cathepsin S (Homo sapiens, UniProt P25774).
T3 construct: made in house; host or cells: Pichia pastoris
T3 sequence (P25774 115-331): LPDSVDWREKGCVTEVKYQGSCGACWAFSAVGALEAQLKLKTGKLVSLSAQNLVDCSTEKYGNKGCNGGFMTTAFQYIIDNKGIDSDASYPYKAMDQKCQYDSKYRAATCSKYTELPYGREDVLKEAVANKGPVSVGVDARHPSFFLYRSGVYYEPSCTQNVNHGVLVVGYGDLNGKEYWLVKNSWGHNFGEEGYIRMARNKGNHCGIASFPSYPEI
The experiment in a line: Ki against cathepsin S (Z-VVR-AMC). The note with it: SigmaPlot at 3 different substrate concentrations; pH 6.5. The procedure: as §1, §2, §3, §4

Assay [4] addresses cathepsin X (Homo sapiens, UniProt Q9UBR2). The experiment in a line: Determination of relative inhibition of cathepsin X. Further details: made in house; host or cells: Pichia pastoris. The procedure: as §1
Abz-FEK(Dnp)-OH was used as cathepsin X specific substrate in activity assays. 90 μL of activated cathepsin X (20 nM) was added to a black 96-well plate with 5 μL of substrate (3.25 μM final concentration) and 5 μL of the compound (50 μM final concentration). The reaction was monitored continuously at 420 nm ± 10 nm with excitation at 320 nm ± 20 nm and at 37 °C. Relative inhibition (%) was calculated with the equation (1 − v i/v 0) × 100, where v i is reaction velocity in the presence of the compound and v 0 is reaction velocity without the compound.

The target in assay [5] is T4, cathepsin B (Homo sapiens, UniProt P07858).
T4 construct: endogenous in cells; host or cells: PC-3
The experiment in a line: Labeling of cathepsin B with activity-based probe DCG-04 in PC-3 cell lysate. The note with it: 10 µM inhibitor.

The target in assay [6] is T5, Cathepsin B (endopeptidase a.) (Homo sapiens, UniProt P07858).
T5 construct: made in house; host or cells: E. coli
The experiment in a line: Ki against cathepsin B endopeptidase activity (Z-RR-AMC). Conditions: SigmaPlot at 3 different substrate concentrations; pH 6.0. The procedure: as §1, §2, §3, §4

Molecules are shown by their SMILES. Read-outs that look alike come from different tables or passages of the source.

Sequence of cathepsin X (Q9UBR2 62-303): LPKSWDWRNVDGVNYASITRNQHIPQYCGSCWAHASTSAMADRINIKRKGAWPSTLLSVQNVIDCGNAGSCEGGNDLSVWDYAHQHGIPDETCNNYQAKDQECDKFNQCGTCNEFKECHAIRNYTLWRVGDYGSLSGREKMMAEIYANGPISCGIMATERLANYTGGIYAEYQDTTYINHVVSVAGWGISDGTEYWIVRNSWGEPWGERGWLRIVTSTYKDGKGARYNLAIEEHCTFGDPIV

Take `CC(C)n1cnnc1SCC(=O)c1ccc2c(c1)OCCO2` [Compound 22, 1-(2,3-Dihydrobenzo[b][1,4]dioxin-6-yl)-2-((4-isopropyl-4H-1,2,4-triazol-3-yl)thio)ethan-1-one]: the Ki in assay [1] is 306 ± 38.1 µM; in assay [2], greater than 1000 µM; in assay [6], 310 ± 68.3 µM. For the same compound, the “Ki Cathepsin S” value in assay [3] is reported as “n.i”. Also, the inhibition at 50 µM in assay [4] (screening at 50 μM compound, read-out: relative inhibition of cathepsin X) was greater than 70%; in assay [4] (second group, 50 μM compound, 1 h preincubation, read-out: % inhibition (1 h preincubation)), 75%. In assay [5], the “inhibition of cathepsin B labeling by DCG-04” value was “weak inhibition”.

The term Ki denotes the equilibrium dissociation constant of an inhibitor or competing ligand from its target. A lower Ki goes with a stronger hold on the target. For orientation: inhibition means the relative decrease from the control value, in per cent.

The values above are taken from PMC5597618, “Identification and characterization of the novel reversible and selective cathepsin X inhibitors” (Scientific Reports, 2017).
